One assay relates to MDA-MB-231-luc tumor. The experiment in a line: In vivo near-infrared fluorescence imaging in xenograft model of human breast cancer. More on the design: species or system mice. To be noted: mouse. How it is done:
(§1) FIGS. 11A and 11B show the results of fluorescence confocal microscopy of multiple cancer and normal cells. Here, MCF-10A, MCF-7, MDA-MB-231 (FIG. 11A) or CCD-18Co, HT-29, and HCT-116 (FIG. 11B) cells were incubated with 5 μmol/l AGM-330-FITC for 30 min at 37° C. […] Cells were then fixed with 4% paraformaldehyde, and the nuclei were stained with DAPI. Merge represents AGM-330-FITC, NCL, and nuclear staining by DAPI. AGM-330-FITC represents FITC-conjugated AGM-330. Scale bar is 20 μm. […] Here, plasma membrane, cytosol and nuclear NCL were immunoblotted using anti-NCL antibody. […] Here, MDA-MB-231 cells were transfected for 48 hours. Then, 5 μmol/l of AGM-330-FITC was added for 2 hours. […] Fluorescence was observed using a fluorescent confocal microscope. […] FIGS. 11G and 11H show in vivo fluorescence images of mice 30 min, 1 h, 6 h, and 24 h after intravenous injections of 10 nmol free Alexa680 (FIG. 11G) or 10 nmol AGM-330-Alexa680 (FIG. 11H) in MDA-MB-231-luc tumor-bearing mice. Here, fluorescence images of the major organs including the heart, spleen, lung, brain, liver, kidney, and tumors were removed from mice with different treatments. […] FIGS. 11I and 11J are graphs showing the average radiant efficiency of Alexa680-associated fluorescence from live imaging of three animals in tumors (FIG. 11I) and different organs (FIG. 11J). […]
A general note: In xenograft studies the graft and the host belong to different species.

Assay [1] deals with MDA-MB-231 cells. The assay can be described thus: Confocal imaging of FITC-labeled peptides. It counts as cell-based, human. Conditions: compared with AGM-331 and AGM-332.
Assay [2] has as its system MCF-10A and CCD-18Co. The assay can be described thus: Cell-growth-on-bead assay, normal cell lines. It counts as cell-based, human. How it is done:
(§2) Here, multiple breast and colorectal cancer cells and normal breast and colorectal cells were re-suspended at 10^6 cells/ml and incubated with beads. All experiments were repeated 3 times, and the scale bar is 200 μm. […] Here, nuclei were stained with DAPI (blue), and scale bar is 50 μm. […] Here, a whole-cell binding assay was performed to determine the cell binding of AGM-330, and the scale bar is 200 μm. […] Fmoc=9-fluorenylmethoxycarbonyl, DMF=dimethylformamide. […] Here, bar graphs represent the mean±SD, and statistical analyses were performed by one-way ANOVA with Dunnett's multiple comparison. *, **, and *** indicate P<0.05, P<0.01, and P<0.001, respectively.
(§3) The beads were washed extensively with double-distilled water and phosphate-buffered saline (PBS; Welgene Inc., Korea) before screening. Cancer cells and normal cells were detached from culture dishes with trypsin/EDTA (Gibco), washed with their corresponding culture medium, resuspended at 10^6 cells/ml, and incubated with OBOC beads in Petri dishes in a humidified CO2 incubator at 37° C. with shaking (60 rpm). Beads bound by cells appeared under a microscope as rosettes with a central bead covered by one or more layers of cells. The positive beads were picked by pipette under an inverted microscope, treated with guanidine-HCL (8 M, 20 min) to remove cells and proteins on the bead surface, and subjected to a second round of screening with normal breast epithelial cells to eliminate false positive binding. Only beads with cell binding at both rounds were sent for peptide sequencing.
(§4) To identify a novel cancer-specific peptide ligand, the present inventors synthesized about 2, 600,000 libraries using 5 g of Tentagel MB NH2 resin (200 μm, 520,000 beads/g; FIG. 3).

The next assay concerns MDA-MB-231-luc cells. The experiment in a line: Tumor suppression in breast cancer xenograft model. The format is in vivo, NPG mice. To be noted: 16.68 mg/kg. As for the experimental part:
FIG. 14B is a schematic representation of the experimental protocol. Here, anesthetized 6-week-old […] NPG mice were inoculated with a 1:1 mix of Matrigel and 1×10^6 MDA-MB-231-luc cells into the mammary fat pad. […] Nuclei were stained with DAPI (blue), and the scale bar is 50 μm. Bar graphs represent the mean±SD, and statistical analyses were performed by one-way ANOVA with Dunnett's multiple comparison. *, **, and *** indicate P<0.05, P<0.01, and P<0.001, respectively. […]
All animal experiments were performed in accordance with IACUC guidelines (GIST-2019-040). For tumorigenesis experiments, anesthetized 6-week-old female NOD-scid Il2rg^−/− mice (NPG™, VITALSTAR) were inoculated in the mammary fat pad with 1×10^6 MDA-MB-231-luc cells in a volume of 100 μl (n=5˜6 for each group). After tumor cell inoculation, when the tumor volume reached approximately 100 mm^3, the mice were randomly divided into the following five groups: (i) control, (ii) low-dose paclitaxel (2 mg/kg), (iii) high-dose paclitaxel (10 mg/kg), (iv) AGM-330 (16.68 mg/kg or 8.34 mg/kg), and (v) AGM-330-PTX (19.05 mg/kg or 10.71 mg/kg). The tumor size was measured twice a week, and the tumor volume was calculated with the following formula:
For the bioluminescent imaging experiment, D-luciferin (150 mg/kg; PerkinElmer) was intraperitoneally injected into each mouse, and an IVIS 100 imaging system (Xenogen, Corporation, Alameda, CA) was used for bioluminescent monitoring. Mice were anesthetized with vaporized isoflurane (BK Pharm, Ilsan, Korea) and placed in an imaging chamber. After 10 min, each animal was imaged with an exposure time of 1 min. All bioluminescent image data were provided by Living Image software (version 4.5.2, PerkinElmer). Photons detected from tumors were converted to average radiance values (photon/see/cm^2/sr), which are quantitative data obtained from a region of intensity (ROI) and include the photons emitted by bioluminescent cells from an assigned rectangular area over the whole body of each mouse.
Following in vitro proliferation analysis on cancer lines, the present inventors investigated whether AGM-330t-PTX could be a potential therapeutic agent in vivo. The present inventors inoculated MDA-MB-231-luc cells into the mammary fat pad of NPG mice. After the subcutaneous tumors grew to 100 mm^3, comparative efficacy studies were performed by dividing the animals into five groups (n=5/group) treated with vehicle (PBS), AGM-330t (16.68 mg/kg), PTX (2 or 10 mg/kg, respectively) or AGM-330t-PTX (19.05 mg/kg) twice a week by tail vein injection (FIG. 14B). Tumor growth was monitored by measuring volumes twice a week with a caliber rule over the course of 3 weeks.
The present inventors also performed histological staining of the excised tumors, and an independent pathologist evaluated the slides.

The test system of a further assay is MDA-MB-231. The experiment in a line: Whole-cell binding (cell-growth-on-bead) assay of screened peptide beads. The format is cell-based, human. As for the experimental part:
as §2, §3, §4

A further assay relates to MCF-10A. The description is as above. The format is cell-based, human. How it is done:
as §2, §3, §4

Assay [3] has as its system human breast cancer cell lines (MCF7 and MDA-MB-231) and human colorectal cancer cell lines (HT-29 and HCT-116). The experiment in a line: Cell-growth-on-bead assay with resynthesized AGM-330 beads. The format is cell-based. To be noted: MCF7, MDA-MB-231, HT-29, HCT-116. How it is done: as §2
The beads were washed extensively with double-distilled water and phosphate-buffered saline (PBS; Welgene Inc., Korea) before screening. Cancer cells and normal cells were detached from culture dishes with trypsin/EDTA (Gibco), washed with their corresponding culture medium, resuspended at 10^6 cells/ml, and incubated with OBOC beads in Petri dishes in a humidified CO2 incubator at 37° C. with shaking (60 rpm). Beads bound by cells appeared under a microscope as rosettes with a central bead covered by one or more layers of cells. […]

Assay [4] relates to MDA-MB-231 cells. The experiment in a line: AGM-330 binding to cells after NCL knockdown (fluorescence confocal microscopy). The format is cell-based, human. How it is done: as §1
Assay [5] relates to MCF-10A and CCD-18Co. The assay can be described thus: FACS binding of AGM-330-FITC to normal cells. Conditions: 2 h of incubation, versus cancer cells. It counts as cell-based, human. Background: A flow cytometer gives signals particle by particle.
Assay [6] relates to MCF-7, MDA-MB-231, HT-29, and HCT-116. The experiment in a line: FACS binding of AGM-330-FITC to cancer cells. The format is cell-based, human. To be noted: 2 h, 37° C., serum-free medium.
For a further assay, the target named is NCL (Homo sapiens, UniProt P19338). The experiment in a line: Double-immunofluorescence confocal microscopy with anti-NCL antibody. More on the design: GFP-NCL (residues 1-710); expressed in transfected cells; host or cells: HEK293T. Conditions: 5 μmol/l, 1 h of incubation. It counts as cell-based. As for the experimental part: FIGS. 11A and 11B show the results of fluorescence confocal microscopy of multiple cancer and normal cells. […] Merge represents AGM-330-FITC, NCL, and nuclear staining by DAPI. AGM-330-FITC represents FITC-conjugated AGM-330. Scale bar is 20 μm. […] Here, plasma membrane, cytosol and nuclear NCL were immunoblotted using anti-NCL antibody. […] Here, MDA-MB-231 cells were transfected for 48 hours. Then, 5 μmol/l of AGM-330-FITC was added for 2 hours. Cells were washed twice with PBS and fixed with 4% paraformaldehyde. Fluorescence was observed using a fluorescent confocal microscope. AGM-330-FITC is FITC-conjugated AGM-330, and the scale bar is 20 μm. […] FIGS. 11G and 11H show in vivo fluorescence images of mice 30 min, 1 h, 6 h, and 24 h after intravenous injections of 10 nmol free Alexa680 (FIG. 11G) or 10 nmol AGM-330-Alexa680 (FIG. 11H) in MDA-MB-231-luc tumor-bearing mice. Here, fluorescence images of the major organs including the heart, spleen, lung, brain, liver, kidney, and tumors were removed from mice with different treatments. […] FIGS. 11I and 11J are graphs showing the average radiant efficiency of Alexa680-associated fluorescence from live imaging of three animals in tumors (FIG. 11I) and different organs (FIG. 11J).
The present inventors evaluated the specificity of AGM-330 to NCL with cell binding assays against different cell lines using fluorescence microscopy. […]

Assay [7] addresses T1, recombinant nucleolin protein (UniProt P19338 1-710, limits assumed).
T1 construct: also called recombinant NCL; NCL
The experiment in a line: SPR (Biacore T-200), recombinant NCL immobilised on a CM5 chip, AGM-330 at 20 nM to 2.5 uM. As for the experimental part: (§5) The SPR sensorgrams shown are from an experiment that is representative of a set of three separate experiments using different sensor chips with similar results. Recombinant NCL was immobilized onto a CM5 sensor chip. Various concentrations of AGM-330 (20 nM to 2.5 µM) were incubated with immobilized NCL and analyzed on a Biacore T-200 apparatus.
(§6) Binding affinity was tested by SPR (surface plasmon resonance) spectroscopy (Biacore T-200). The recombinant nucleolin protein was immobilized on the CM5 sensorchip, and the treated with AGM-330 at various concentrations (20 nM to 2.5 µM). The sensogram for each sample was analyzed to determine the KD value.
Background: SPR reads the build-up and loss of mass on a sensor chip optically.

Assay [8] deals with T1, recombinant nucleolin protein. The experiment in a line: SPR (Biacore T-200), recombinant NCL immobilised on a CM5 chip, AGM-330 20 nM to 2.5 µM as analyte. How it is done:
as §5, §6

Ends that are not written are not given here.

T1 sequence (P19338 whole entry): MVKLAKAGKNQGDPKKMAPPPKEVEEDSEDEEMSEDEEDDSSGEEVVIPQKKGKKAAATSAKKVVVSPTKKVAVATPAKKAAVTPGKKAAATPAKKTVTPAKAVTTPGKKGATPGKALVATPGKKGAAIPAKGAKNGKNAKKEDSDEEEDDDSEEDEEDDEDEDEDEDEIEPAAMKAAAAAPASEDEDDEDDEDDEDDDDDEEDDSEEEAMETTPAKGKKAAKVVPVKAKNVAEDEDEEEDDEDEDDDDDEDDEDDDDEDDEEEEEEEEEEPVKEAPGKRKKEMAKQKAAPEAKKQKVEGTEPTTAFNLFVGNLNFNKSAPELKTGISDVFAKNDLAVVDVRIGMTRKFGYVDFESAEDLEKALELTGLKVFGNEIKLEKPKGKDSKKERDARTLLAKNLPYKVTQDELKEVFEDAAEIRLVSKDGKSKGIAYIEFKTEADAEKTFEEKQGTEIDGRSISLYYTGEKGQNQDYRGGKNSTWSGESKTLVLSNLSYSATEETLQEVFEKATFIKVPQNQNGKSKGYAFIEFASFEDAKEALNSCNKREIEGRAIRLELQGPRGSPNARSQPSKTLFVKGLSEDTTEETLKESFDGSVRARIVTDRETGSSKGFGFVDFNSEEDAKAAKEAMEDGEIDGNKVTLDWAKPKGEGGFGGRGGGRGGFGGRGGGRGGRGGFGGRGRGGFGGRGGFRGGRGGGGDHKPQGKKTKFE
Chain of NCL (P19338 whole entry, the tested form may be a part): as the sequence (P19338 whole entry) above

In the case of “RHGAMVYLK [AGM-330, name also used for its PEGylated MAP dendrimeric forms]”, in the assay on MDA-MB-231-luc tumor, the “distribution in tumor tissue versus normal organs (NIRF images)” value is on record as “mainly accumulated throughout the tumor tissue rather than normal organs”. In addition, the “fluorescence signals of FITC-labeled peptide on MDA-MB-231 cells” value in the assay on MDA-MB-231 cells [1] is on record as “strongest fluorescence signals”. For the same molecule, the “binding to normal cell lines MCF-10A and CCD-18Co” value in the assay on MCF-10A and CCD-18Co [2] is recorded as “bound either very weakly or not at all”. For the same molecule, the “difference in the average tumor volume versus vehicle (PBS)-treated mice” value in the assay on MDA-MB-231-luc cells is reported as “no significant difference”. In addition, in the assay on MDA-MB-231, the “binding to MDA-MB-231” value is “strong preferential binding”. Besides, the “binding to the human normal breast cell line MCF-10A” value in the assay on MCF-10A is given as “no or only weak binding”. Also, the “time until beads were fully covered by cancer cell lines” value in [3] is recorded as no more than 15 min. Further, the “fluorescence signal (AGM-330 binding) in siNCL1-treated cells” value in the assay on MDA-MB-231 cells [4] was “little or no fluorescence signal”.

As to “AGM-330-FITC (RHGAMVYLK; also: FITC-labelled (site not given here))”, in the assay on MCF-10A and CCD-18Co [5], the “binding to normal cells (MFI)” value is on record as “significant decrease in binding”. In addition, the “cancer cell binding (increase in MFI relative to untreated cells)” value in assay [6] is given as “significant cancer cell binding”. In addition, the “colocalization with NCL staining” value in the assay with NCL was “overlap between NCL and AGM-330-FITC”.

B1: AGM-330 (peptide)
peptide: RHGAMVYLK
modifications: not fully specified (C-terminus); also: MAP dendrimer (dimer/tetramer) on lysine core with C-terminal Cys
notes: The form used in SPR (monomer, dimer or tetramer); also called AGM-330 peptide; AGM peptide ligand
As for B1, the values for the Kd in assay [7] and in [8] were roughly 57.7 nM and 57.7 nM, respectively.

The Kd is the concentration at which binding is half-saturated.

Values taken from patent publication US20250032629A1, “NOVEL NUCLEOLIN-BINDING PEPTIDE AND USE THEREOF” (ANYGEN CO., LTD., priority 2020, published 2025).
